Measurements published in paper PMC11149917, “Translational and Therapeutic Evaluation of RAS-GTP Inhibition by RMC-6236 in RAS-Driven Cancers” (Cancer Discovery, 2024).

What was measured:
[1] = tested on: pERK in NCI-H441 xenograft tumors; assay: IHC whole-slide quantification; format: in vivo, mouse; conditions: control 33.1
Experimental: (§1) All tissues were fixed for up to 24 hours using 10% neutral buffered formalin and then moved to 70% ethanol for long-term storage. FFPE sections (4 µm) were stained on the Biocare intelliPATH automated staining platform using the manufacturer’s recommended settings.
(§2) Anti–phospho-p44/42 MAPK (Erk1/2; Thr202/Tyr204) rabbit monoclonal antibody (Cell Signaling Technology, cat no. 4370, clone: D13.14.4E) was used at 1:200 with citrate-based pH 6.2 heat-induced epitope retrieval; an isotype control (rabbit IgG) was used under the same conditions.
(§3) All tissue sections were incubated with Biocare Peroxidase Blocker (Biocare, cat no. PX968) and Background Punisher (Biocare, cat no. BP974M) to block nonspecific background. MACH4 HRP-polymer Detection System (Biocare, cat no. MRH534) was used to detect rabbit primary antibodies.
(§4) DAB-stained slides were scanned and digitized with a Huron TissueScope LE120 whole-slide scanner at 200× magnification.
(§5) The EpCAM staining was used to identify epithelial cells. First, the area to be analyzed was delineated, excluding necrotic regions. The random forest tumor classifier from the HALO Image Analysis package was used to identify the tumor compartment. Three classes were created: glass, tumor (EpCAM-positive), and stroma. The tumor class mark was then copied onto the serial sections stained with various markers to perform the image analysis only on the tumor compartment.
(§6) Quantification of P-ERK and pS6 was performed with the HALO Image Analysis software from Indica labs using the Area Quantification module. The analysis was performed only on the tumor compartment copied from the EpCAM slide. The software was tuned to detect positive DAB staining (brown color). Percentage of area positivity was chosen to represent the results (area positive for brown/total area); and subjected to statistical analysis using GraphPad Prism (Dunnett multiple comparisons test).

[2] = tested on: pERK in Capan-2 xenograft tumors; assay: IHC whole-slide quantification; format: in vivo, mouse; conditions: for pERK (% positive area): control 32.3
Experimental: as §1, §2, §3, §4, §5, §6

wild-type NRAS = wild-type NRAS (Homo sapiens, UniProt P01111+P62937); assay: RAS-RAF TR-FRET; format: biochemical; conditions: 25 µmol/L CypA, read-out: EC50, disruption of RAF-RBD binding
Sequence of wild-type NRAS (P01111 1-169): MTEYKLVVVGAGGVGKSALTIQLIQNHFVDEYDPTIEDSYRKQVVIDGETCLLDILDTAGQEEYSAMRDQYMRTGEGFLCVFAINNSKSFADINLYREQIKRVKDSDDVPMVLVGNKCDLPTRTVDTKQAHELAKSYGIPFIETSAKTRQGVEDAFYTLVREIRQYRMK
Sequence of wild-type NRAS (P62937 whole entry): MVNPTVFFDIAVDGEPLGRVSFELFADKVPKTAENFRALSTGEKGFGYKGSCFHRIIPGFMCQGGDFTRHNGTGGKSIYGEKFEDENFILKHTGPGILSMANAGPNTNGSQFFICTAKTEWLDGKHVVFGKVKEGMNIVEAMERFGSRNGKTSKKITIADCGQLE

wild-type HRAS = wild-type HRAS (Homo sapiens, UniProt P01112+P62937); assay: RAS-RAF TR-FRET; format: biochemical; conditions: 25 µmol/L CypA, read-out: EC50, disruption of RAF-RBD binding
Sequence of wild-type HRAS (P01112 1-169): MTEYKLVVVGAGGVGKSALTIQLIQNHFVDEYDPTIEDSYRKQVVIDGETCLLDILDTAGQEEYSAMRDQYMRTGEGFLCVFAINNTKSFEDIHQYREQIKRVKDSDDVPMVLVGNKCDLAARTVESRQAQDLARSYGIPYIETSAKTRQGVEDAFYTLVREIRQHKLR
Sequence of wild-type HRAS (P62937 whole entry): as the sequence (P62937 whole entry) above

pERK in ear skin = assay: IHC whole-slide quantification; format: in vivo, mouse; conditions: control 1.1
Experimental: as §1, §2, §3, §4, §6

[3] = Tolerability by body weight change in xenograft studies; format: in vivo, mouse; conditions: repeated oral administration
Experimental: To generate subcutaneous CDX, each mouse was inoculated at the right flank with tumor cells (2 × 10^6 − 1 × 10^7) in 100 to 200 µL of media/PBS Supplemented with Matrigel. Treatments were initiated when average tumor volume reached 130 to 200 mm^3 for tumor growth evaluation and 350 to 650 mm^3 for single-dose pharmacokinetic/pharmacodynamic (PK/PD). Tumor diameter was measured in two dimensions using a digital caliper, and the tumor volume in mm^3 was calculated using the formula: Volume = ((width)^2 × length)/2. Mice in the study were weighed and tumors were measured twice weekly.
In tumor volume plots, the average tumor volume of each group was plotted over the course after implantation (except for PDX models, where the x-axis started on the first day of treatment). Control and RMC-6236 groups were compared by two-way repeated-measures ANOVA on the last measurement day of the control group. Percentage change in body weight for each animal on a given day was determined as [(body weight on test article administration end date/body weight on test article administration start date) −1] × 100. […] The mRECIST score was determined based on % mean tumor volume change, mCR is more than 80% regression, mPR is between 30% and 80% regression, mSD is between 30% growth and 30% regression, mPD is more than 30% growth. […]

SMILES: CCn1c(-c2cc(N3CCN(C)CC3)cnc2[C@H](C)OC)c2c3cc(ccc31)-c1csc(n1)C[C@H](NC(=O)[C@H]1C[C@@H]1C)C(=O)N1CCC[C@H](N1)C(=O)OCC(C)(C)C2 [RMC-6236]
- pERK (% positive area) ([1]; NCI-H441 (3 mg/kg), 8h): 6.8%
- pERK (% positive area) ([1]; NCI-H441 (3 mg/kg), 24h): 7.7%
- pERK (% positive area) ([1]; NCI-H441 (3 mg/kg), 48hr): 8.6%
- pERK (% positive area) ([1]; NCI-H441 (10 mg/kg), 8h): 0.949%
- pERK (% positive area) ([1]; NCI-H441 (10 mg/kg), 24h): 3.6%
- pERK (% positive area) ([1]; NCI-H441 (10 mg/kg), 48hr): 3.6%
- pERK (% positive area) ([1]; NCI-H441 (25 mg/kg), 8h): 0.23%
- pERK (% positive area) ([1]; NCI-H441 (25 mg/kg), 24h): 1.1%
- pERK (% positive area) ([1]; NCI-H441 (25 mg/kg), 48hr): 3.4%
- pERK (% positive area) ([2]; Capan-2 (3 mg/kg), 8h): 7.6%
- pERK (% positive area) ([2]; Capan-2 (3 mg/kg), 24h): 14.0%
- pERK (% positive area) ([2]; Capan-2 (3 mg/kg), 48hr): 17.6%
- pERK (% positive area) ([2]; Capan-2 (10 mg/kg), 8h): 2.8%
- pERK (% positive area) ([2]; Capan-2 (10 mg/kg), 24h): 3.7%
- pERK (% positive area) ([2]; Capan-2 (10 mg/kg), 48hr): 14.3%
- pERK (% positive area) ([2]; Capan-2 (25 mg/kg x 7d), 8h): 4.4%
- pERK (% positive area) ([2]; Capan-2 (25 mg/kg x 7d), 24h): 9.2%
- pERK (% positive area) ([2]; Capan-2 (25 mg/kg x 7d), 48hr): 18.9%
- pERK (% positive area) ([2]; Capan-2 (25 mg/kg), 8h): 3.1%
- pERK (% positive area) ([2]; Capan-2 (25 mg/kg), 24h): 6.3%
- pERK (% positive area) ([2]; Capan-2 (25 mg/kg), 48hr): 14.8%
- inhibition at 25 mg/kg ([2]; Mus musculus, Capan-2, 25 mg/kg, up to 24 hours post-dose, read-out: inhibition of pERK levels in tumors (IHC)): > 80%
- EC50 (wild-type NRAS): 66 nM
- EC50 (wild-type HRAS): 82 nM
- pERK (% positive area) (pERK in ear skin; Ear Skin (25 mg/kg x7d), 8h): 0.7%
- pERK (% positive area) (pERK in ear skin; Ear Skin (25 mg/kg x7d), 24h): 0.9%
- pERK (% positive area) (pERK in ear skin; Ear Skin (25 mg/kg x7d), 48hr): 2.6%
- pERK (% positive area) (pERK in ear skin; Ear Skin (25 mg/kg), 8h): 1.1%
- pERK (% positive area) (pERK in ear skin; Ear Skin (25 mg/kg), 24h): 1.8%
- pERK (% positive area) (pERK in ear skin; Ear Skin (25 mg/kg), 48hr): 3.3%
- tolerability assessed by body weight change [3]: tolerated at all dose levels and in all preclinical models evaluated
